ChEMBL document CHEMBL1131772, “Synthesis of 8-Oxa analogues of norcocaine endowed with interesting cocaine-like activity” (Bioorg Med Chem Lett, 1999)

Experiments:
[1] = target: T1, Sodium-dependent dopamine transporter (Rattus norvegicus, UniProt P23977); experiment: Inhibition of high affinity uptake of [3H]dopamine into striatal nerve endings (synaptosomes); format: subcellular, Brain
[2] = target: T1, Sodium-dependent dopamine transporter; experiment: Binding affinity towards dopamine transporter using [3H]- mazindol as radioligand in rat striatal membranes; format: cell membranes, Striatum, Membrane

T1 sequence (P23977 whole entry): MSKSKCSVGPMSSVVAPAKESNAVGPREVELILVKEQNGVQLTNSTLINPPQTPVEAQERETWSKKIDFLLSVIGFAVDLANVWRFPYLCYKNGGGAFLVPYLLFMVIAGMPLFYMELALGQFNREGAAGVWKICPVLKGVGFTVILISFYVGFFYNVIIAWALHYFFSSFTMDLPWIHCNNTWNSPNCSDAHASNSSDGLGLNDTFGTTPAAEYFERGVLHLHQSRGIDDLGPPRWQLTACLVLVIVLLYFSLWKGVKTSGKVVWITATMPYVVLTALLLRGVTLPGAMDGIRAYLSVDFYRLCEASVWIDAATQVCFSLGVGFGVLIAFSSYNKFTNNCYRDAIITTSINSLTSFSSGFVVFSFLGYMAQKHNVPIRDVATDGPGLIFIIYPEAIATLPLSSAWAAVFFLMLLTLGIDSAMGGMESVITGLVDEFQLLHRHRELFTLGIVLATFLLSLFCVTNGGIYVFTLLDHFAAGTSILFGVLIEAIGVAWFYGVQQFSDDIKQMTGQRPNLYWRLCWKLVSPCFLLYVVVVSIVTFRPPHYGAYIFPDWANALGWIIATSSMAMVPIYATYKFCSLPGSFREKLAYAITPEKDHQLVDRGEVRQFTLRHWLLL

Row | Compound | Ki [1] [µM] | Ki [2] [µM]
1 | COC(=O)[C@@H]1C2CCC(C[C@H]1OC(=O)c1ccccc1)O2 (some centres not stated) | 23 | 34
2 | COC(=O)[C@H]1C2CCC(C[C@H]1OC(=O)c1ccccc1)O2 (some centres not stated) | 35 | 38
3 | COC(=O)[C@H]1C2CCC(C[C@@H]1OC(=O)c1ccccc1)O2 (stereo in doubt; (+)) | 47.7 | 29.4
4 | COC(=O)[C@H]1C2CCC(C[C@@H]1OC(=O)c1ccccc1)O2 (stereo in doubt; (-)) | 6 | 4.7
5 | COC(=O)[C@@H]1C2CCC(C[C@@H]1OC(=O)c1ccccc1)O2 (stereo in doubt; (-)) | 8.5 | 4.2
6 | COC(=O)[C@@H]1C2CCC(C[C@@H]1OC(=O)c1ccccc1)O2 (stereo in doubt; (+)) | 9.4 | 3.1
